From PMC10890569, “The Sequence Characteristics and Binding Properties of the Odorant-Binding Protein SvelOBP1 from Sympiezomias velatus (Coleoptera: Curculionidae) to Jujube Volatiles” (Life, 2024)
Like-named read-outs stand apart in the source and are kept apart here.

Tests used:
SvelOBP1 [1] = experiment: Competitive fluorescence binding assay (displacement of 1-NPN); parameters: species or system Sympiezomias velatus; conditions: for IC50: 2 μM recombinant SvelOBP1/1-NPN, ligand 0-16 μM, 20 mM Tris-HCl pH7.4, three replicates, read-out: IC50 (ligand concentration replacing 50% of initial fluorescence of SvelOBP1/1-NPN mixture)
Experimental: (§1) The fluorescent probe 1-N-phenyl-naphthylamine (1-NPN) was used to evaluate the binding affinity of SvelOBP1 protein to different ligands. Forty-three host plant volatiles from leaves of jujube trees were selected as putative ligands (Table 2). Fluorescence-based ligand binding assays were performed on an F-2700 fluorescence spectrophotometer (Hitachi, Tokyo, Japan). The excitation wavelength was 337 nm, and the emission spectra were in the range from 370 to 550 nm. First, all tested ligands and 1-NPN were dissolved in chromatographic methanol and diluted to 1 mM as the stock solution. Second, the recombinant protein was diluted to 2 μM with 20 mM Tris-HCl (pH7.4), and 2 mL of the protein solution was placed in a 1 cm light path quartz cuvette.
(§2) The dissociation constants K1-NPN of 1-NPN to SvelOBP1 were calculated by GraphPad Prism 8.0 software with non-linear regression for the one site-specific binding method. The inhibitory constant (Ki) of each ligand binding to SvelOBP1 was calculated with Equation (1). IC50 is the ligand concentration replacing 50% of the initial fluorescence intensity of the SvelOBP1/1-NPN mixture. [1-NPN] represents the free concentration of 1-NPN. […] (1) Ki=IC50/(1+[1−NPN]/K1−NPN)

SvelOBP1 [2] = experiment: Binding of fluorescent probe 1-NPN to SvelOBP1 (titration, Scatchard plot); parameters: species or system Sympiezomias velatus; conditions: 2 μM SvelOBP1 titrated with 1-NPN 0-16 μM, pH7.4; read-out: dissociation constant (Kd) of 1-NPN
Experimental: as §1, §2

SvelOBP15 = target: SvelOBP15; parameters: method as in PMID 35711318; conditions: cited from earlier work
[3] = Ki=IC50/(1+[1-NPN]/K1-NPN), 2 μM SvelOBP1/1-NPN, pH7.4, mean ± SEM, read-out: Ki (inhibitory constant)
[4] = class in words by Ki, read-out: binding affinity class

Row | SMILES | IC50 (SvelOBP1 [1]; mean ± SEM) [µM] | Ki (SvelOBP1 [1]; [3]) [µM] | also measured
1 | CC12CCC(CC1)C(C)(C)O2 [1,3,3-trimethyl-2-oxabicyclo [2.2.2]octane] | 13.81 ± 0.13 | 11.48 ± 0.11 | 
2 | CCc1ccc(C(C)=O)cc1 [1-(4-ethylphenyl)ethanone] | 13.1 ± 0.16 | 10.9 ± 0.13 | Ki (SvelOBP1 [1]; [4]): 10 to 16 µM
3 | c1ccc(Nc2cccc3ccccc23)cc1 [1-NPN, 1-N-phenyl-naphthylamine] |  |  | Kd (SvelOBP1 [2]): 4.92 ± 0.04 µM
4 | C=C1C2CCC(C2)C1(C)C (stereo not drawn) [2,2-dimethyl-3-methylidenebicyclo [2.2.1]heptane] | > 16 |  | 
5 | O=C1CCCC1C1CCCC1 (stereo not drawn) [2-cyclopentylcyclopentan-1-one] | > 16 |  | 
6 | C=CCc1ccc(O)c(OC)c1 [2-methoxy-4-prop-2-enylphenol] | > 16 |  | 
7 | CC(C)C=O [2-methylpropanal] | > 16 |  | 
8 | C=CC(=C)CCC=C(C)C [7-methyl-3-methylideneocta-1,6-diene] | > 16 |  | 
9 | CC(C)=CCC/C(C)=C/CO [(2E)-3,7-dimethylocta-2,6-dien-1-ol] | > 16 |  | 
10 | CC(C)=CCC/C(C)=C/CC/C(C)=C/CO [(2E,6E)-3,7,11-trimethyldodeca-2,6,10-trien-1-ol] | 14.4 ± 0.17 | 11.9 ± 0.14 | 
11 | C=C/C(C)=C/C/C=C(\C)CCC=C(C)C [(3E,6E)-3,7,11-trimethyldodeca-1,3,6,10-tetraene] |  | 8.73 ± 0.09 | 
12 | C=CC(C)(O)CC/C=C(\C)CCC=C(C)C (stereo not drawn) [(6E)-3,7,11-trimethyldodeca-1,6,10-trien-3-ol] | > 16 |  | 
13 | CC(C)=CCC/C(C)=C/CC/C(C)=C/CC/C=C(\C)CC/C=C(\C)CCC=C(C)C [(6E,10E,14E,18E)-2,6,10,15,19,23-hexamethyltetracosa-2,6,10,14,18,22-hexaene] | > 16 |  | 
14 | C/C(=C\CO)CCCC(C)CCCC(C)CCCC(C)C (stereo not drawn) [(E)-3,7,11,15-tetramethylhexadec-2-en-1-ol] | > 16 |  | 
15 | CCC/C=C/CO [(E)-hex-2-en-1-ol] | 15.44 ± 0.14 | 12.83 ± 0.12 | 
16 | CC/C=C\CCO [(Z)-hex-3-en-1-ol] |  | 7.98 ± 0.08 | Ki (SvelOBP1 [1]; [4]): 5 to 10 µM; Ki (SvelOBP15): > 16 µM
17 | CC(C)COC(=O)CCCCC(=O)OCC(C)C [Bis(2-methylpropyl) hexanedioate] | > 16 |  | 
18 | CCCCOC(C)=O [Butyl acetate] | 13.2 ± 0.47 | 10.9 ± 0.39 | 
19 | CCCCOC(=O)c1ccccc1C(=O)OCCCC [Dibutyl benzene-1,2-dicarboxylate] |  | 6.66 ± 0.03 | 
20 | CCCCCCCCCCCC [Dodecane] | > 16 |  | 
21 | CCCCC(=O)OCC [Ethyl pentanoate] | 14.1 ± 0.31 | 11.7 ± 0.26 | 
22 | CCCCCCCCCCCCCCCC(=O)O [Hexadecanoic acid] | 14.1 ± 0.33 | 11.7 ± 0.27 | Ki (SvelOBP1 [1]; [4]): 10 to 16 µM
23 | C=CC(O)CCCCC (stereo not drawn) [Oct-1-en-3-ol] | 15.18 ± 0.13 | 12.61 ± 0.11 | 
24 | CCC/C=C/COC(=O)CCCCC [[(E)-hex-2-enyl] hexanoate] | 14.51 ± 0.06 | 12.06 ± 0.05 | 
25 | CC/C=C\CCOC(=O)C(C)CC (stereo not drawn) [[(Z)-hex-3-enyl] 2-methylbutanoate] | 13.4 ± 0.2 | 11.2 ± 0.16 | 
26 | CC/C=C\CCOC(=O)CCC [[(Z)-hex-3-enyl] butanoate] | 15.5 ± 0.9 | 12.9 ± 0.75 | 

Second part, led by results:

Row | IC50 (SvelOBP1 [1]; mean ± SEM) [µM] | Ki (SvelOBP1 [1]; [3]) [µM] | SMILES | also measured
27 | > 16 |  | CC(=O)c1ccc(C)c(C)c1 [1-(3,4-dimethylphenyl)ethanone] | 
28 | 13.11 ± 0.02 | 10.9 ± 0.01 | C=C(C)C1CC=C(C)CC1 (stereo not drawn) [1-methyl-4-prop-1-en-2-ylcyclohexene] | 
29 | 11.69 ± 0.07 | 9.71 ± 0.06 | CC1=CCC(C(C)C)C=C1 (stereo not drawn) [2-methyl-5-propan-2-ylcyclohexa-1,3-diene] | 
30 | > 16 |  | CC(C)=Cc1ccccc1 [2-methylprop-1-enylbenzene] | 
31 | 14.56 ± 0.07 | 12.1 ± 0.06 | CC1=CCC2C(C1)C2(C)C (stereo not drawn) [3,7,7-trimethylbicyclo [4.1.0]hept-3-ene] | 
32 | 11.13 ± 0.06 | 9.25 ± 0.05 | C=CC(C)=CCC=C(C)C [3,7-dimethylocta-1,3,6-triene] | 
33 | 13.6 ± 0.16 | 11.3 ± 0.13 | C=CC(C)(O)CCC=C(C)C (stereo not drawn) [3,7-dimethylocta-1,6-dien-3-ol] | 
34 | > 16 |  | CC1=CC[C@H]2C[C@@H]1C2(C)C [(1S,5S)-2,6,6-trimethylbicyclo [3.1.1]hept-2-ene] | 
35 | > 16 |  | CC(C)=CCC/C(C)=C/C(=O)O [(2E)-3,7-dimethylocta-2,6-dienoic acid] | 
36 | 11.28 ± 0.1 | 9.37 ± 0.08 | CCOC(=O)C(C)CC (stereo not drawn) [Ethyl 2-methylbutyrate] | 
37 | > 16 |  | CCOC(=O)CC(C)C [Ethyl 3-methylbutanoate] | 
38 | > 16 |  | C/C=C(\C)C(=O)OCC [Ethyl (E)-2-methylbut-2-enoate] | 
39 | 14.2 ± 0.16 | 11.8 ± 0.13 | CCCC(=O)OCC [Ethyl butyrate] | 
40 | > 16 |  | COC(=O)c1ccccc1O [Methyl 2-hydroxybenzoate] | 
41 | 11.3 ± 0.27 | 9.4 ± 0.23 | OCc1ccccc1 [Phenylmethanol] | 
42 | > 16 |  | CCC/C=C/COC(C)=O [[(E)-hex-2-en-1-yl] acetate] | 
43 | 14.4 ± 0.16 | 11.9 ± 0.13 | CC/C=C\CCOC(=O)CC(C)C [[(Z)-hex-3-enyl] 3-methylbutanoate] | 
44 | 14.45 ± 0.11 | 12.01 ± 0.09 | CC/C=C\CCOC(C)=O [[(Z)-hex-3-enyl] acetate] | 
